In patent US7973061B2, “Anaplastic lymphoma kinase modulators and methods of use” (Exelixis, Inc., priority 2004, dated 2011):
Read-outs that look alike come from different tables or passages of the source.

Molecular target: T1, ALK (baculovirus expressed human ALK kinase domain F1098-K1410) (Homo sapiens, UniProt Q9UM73)
T1 construct: human ALK kinase domain F1098-K1410; made in house
Test: biochemical
How it was run: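 Baculovirus-expressed human ALK kinase domain (F1098-K1410) was run in a luciferase-coupled chemiluminescent format, with ATP near its KM. After 2 h at ambient temperature, remaining ATP was read by luciferase-luciferin luminescence. IC50 came from 10-point dose-response curves fitted to a four-parameter equation with Hill slope.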

[1] = 1 μM ATP, 4 μM poly-AEKY, 12 nM ALK, 2 hours at ambient temperature, read-out: ALK IC50

T1 sequence (Q9UM73 1098-1410): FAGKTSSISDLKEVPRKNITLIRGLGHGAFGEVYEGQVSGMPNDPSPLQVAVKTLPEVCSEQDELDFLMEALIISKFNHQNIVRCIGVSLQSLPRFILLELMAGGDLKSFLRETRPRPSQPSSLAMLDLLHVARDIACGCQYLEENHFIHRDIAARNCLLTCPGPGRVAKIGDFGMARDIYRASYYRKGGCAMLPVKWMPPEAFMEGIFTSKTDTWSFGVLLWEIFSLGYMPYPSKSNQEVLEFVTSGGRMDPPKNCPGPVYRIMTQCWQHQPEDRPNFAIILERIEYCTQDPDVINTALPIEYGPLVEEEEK

Row | Compound | IC50 [1] | IC50
1 | O=C(COc1ccc(OC(F)(F)F)cc1)NCc1nc(C(=O)NCc2ccco2)cs1 [Entry 249, N-(furan-2-ylmethyl)-2-({[({4-[(trifluoromethyl)oxy]phenyl}oxy)acetyl]amino}methyl)-1,3-thiazole-4-carboxamide] | 500 to 2000 nM | 
2 | O=C(COc1ccc(OC(F)(F)F)cc1)NCc1nc(C(=O)NCCc2ccc(F)cc2)co1 [Entry 201, N-[2-(4-fluorophenyl)ethyl]-2-({[({4-[(trifluoromethyl)oxy]phenyl}oxy)acetyl]amino}methyl)-1,3-oxazole-4-carboxamide] | 50 to 500 nM | 
3 | CC(C)C(C)NC(=O)c1csc(CNC(=O)COc2ccc(OC(F)(F)F)cc2)n1 (stereo not drawn) [Entry 197, N-(1,2-dimethylpropyl)-2-({[({4-[(trifluoromethyl)oxy]phenyl}oxy)acetyl]amino}methyl)-1,3-thiazole-4-carboxamide] | 50 to 500 nM | 
4 | O=C(COc1ccc(OC(F)(F)F)cc1)NCc1nc(C(=O)NCCN2CCOCC2)cs1 [Entry 205, N-(2-morpholin-4-ylethyl)-2-({[({4-[(trifluoromethyl)oxy]phenyl}oxy)acetyl]amino}methyl)-1,3-thiazole-4-carboxamide] | 50 to 500 nM | 
5 | NCc1nc(C(=O)NCCc2cccc(Cl)c2)cs1 [Entry 300, 2-(aminomethyl)-N-[2-(3-chlorophenyl)ethyl]-1,3-thiazole-4-carboxamide] | > 2000 nM | 
6 | O=C(COc1ccc(OC(F)(F)F)cc1)NCc1nc(C(=O)NCc2cc(Cl)cc(Cl)c2)cs1 [Entry 69, N-[(3,5-dichlorophenyl)methyl]-2-({[({4-[(trifluoromethyl)oxy]phenyl}oxy)acetyl]amino}methyl)-1,3-thiazole-4-carboxamide] | 50 to 500 nM | 
7 | O=C(COc1ccc(OC(F)(F)F)cc1)NCc1nc(C(=O)NCCc2ccccn2)co1 [Entry 296, N-(2-pyridin-2-ylethyl)-2-({[({4-[(trifluoromethyl)oxy]phenyl}oxy)acetyl]amino}methyl)-1,3-oxazole-4-carboxamide] | 500 to 2000 nM | 
8 | Cc1ccccc1CNC(=O)c1csc(CNC(=O)COc2ccc(OC(F)(F)F)cc2)n1 [Entry 98, N-[(2-methylphenyl)methyl]-2-({[({4-[(trifluoromethyl)oxy]phenyl}oxy)acetyl]amino}methyl)-1,3-thiazole-4-carboxamide] | 50 to 500 nM | 
9 | O=C(COc1ccc(OC(F)(F)F)cc1)NCc1nc(C(=O)NCc2ccccc2)cs1 [Entry 194, N-(phenylmethyl)-2-({[({4-[(trifluoromethyl)oxy]phenyl}oxy)acetyl]amino}methyl)-1,3-thiazole-4-carboxamide] | 50 to 500 nM | 
10 | O=C(COc1ccc(OC(F)(F)F)cc1)NCc1nc(C(=O)NCC2c3ccccc3CCc3ccccc32)cs1 [Entry 4, N-(10,11-dihydro-5H-dibenzo[a,d]cyclohepten-5-ylmethyl)-2-({[({4-[(trifluoromethyl)oxy]phenyl}oxy)acetyl]amino}methyl)-1,3-thiazole-4-carboxamide] | < 50 nM | 
11 | CN(C(=O)OC(C)(C)C)C1CCN(C(=O)c2csc(CNC(=O)COc3ccc(OC(F)(F)F)cc3)n2)C1 (stereo not drawn) [Entry 295, 1,1-dimethylethyl methyl(1-{[2-({[({4-[(trifluoromethyl)oxy]phenyl}oxy)acetyl]amino}methyl)-1,3-thiazol-4-yl]carbonyl}pyrrolidin-3-yl)carbamate] | 500 to 2000 nM | 
12 | C[C@@H](NC(=O)c1csc(CNC(=O)COc2ccc(OC(F)(F)F)cc2)n1)C(C)(C)C [Entry 233, 2-({[({4-[(trifluoromethyl)oxy]phenyl}oxy)acetyl]amino}methyl)-N-[(1R)-1,2,2-trimethylpropyl]-1,3-thiazole-4-carboxamide] | 500 to 2000 nM | 
13 | O=C(COc1ccc(OC(F)(F)F)cc1)NCc1nc(C(=O)NCCOc2ccccc2)cs1 [Entry 122, N-[2-(phenyloxy)ethyl]-2-({[({4-[(trifluoromethyl)oxy]phenyl}oxy)acetyl]amino}methyl)-1,3-thiazole-4-carboxamide] |  | 50 to 500 nM
14 | COc1cccc(CNC(=O)c2coc(CNC(=O)COc3ccc(OC(F)(F)F)cc3)n2)c1OC [Entry 223, N-{[2,3-bis(methyloxy)phenyl]methyl}-2-({[({4-[(trifluoromethyl)oxy]phenyl}oxy)acetyl]amino}methyl)-1,3-oxazole-4-carboxamide] | 500 to 2000 nM | 
15 | COc1cccc(CCNC(=O)c2csc(CNC(=O)COc3ccc(OC(F)(F)F)cc3)n2)c1OC [Entry 53, N-{2-[2,3-bis(methyloxy)phenyl]ethyl}-2-({[({4-[(trifluoromethyl)oxy]phenyl}oxy)acetyl]amino}methyl)-1,3-thiazole-4-carboxamide] | 50 to 500 nM | 
16 | CC(C)CCCC(C)NC(=O)c1csc(CNC(=O)COc2ccc(OC(F)(F)F)cc2)n1 (stereo not drawn) [Entry 212, N-(1,5-dimethylhexyl)-2-({[({4-[(trifluoromethyl)oxy]phenyl}oxy)acetyl]amino}methyl)-1,3-thiazole-4-carboxamide] | 50 to 500 nM | 

Further lines, results first:

Row | IC50 [1] | IC50 | Compound
17 | 50 to 500 nM |  | COc1ccccc1CNC(=O)c1csc(CNC(=O)Cc2ccc(C(C)C)cc2)n1 [Entry 192, 2-[({[4-(1-methylethyl)phenyl]acetyl}amino)methyl]-N-{[2-(methyloxy)phenyl]methyl}-1,3-thiazole-4-carboxamide]
18 | < 50 nM |  | COc1ccccc1CNC(=O)c1csc(CNC(=O)COc2ccc(C(C)(C)C)cc2)n1 [Entry 22, 2-{[({[4-(1,1-dimethylethyl)phenyl]oxy}acetyl)amino]methyl}-N-{[2-(methyloxy)phenyl]methyl}-1,3-thiazole-4-carboxamide]
19 | 50 to 500 nM |  | O=C(COc1ccc(OC(F)(F)F)cc1)NCc1nc(C(=O)NCCc2ccccc2)cs1 [Entry 145, N-(2-phenylethyl)-2-({[({4-[(trifluoromethyl)oxy]phenyl}oxy)acetyl]amino}methyl)-1,3-thiazole-4-carboxamide]
20 | 500 to 2000 nM |  | O=C(COc1ccc(OC(F)(F)F)cc1)NCc1nc(C(=O)NCCC(c2ccccc2)c2ccccc2)cs1 [Entry 260, N-(3,3-diphenylpropyl)-2-({[({4-[(trifluoromethyl)oxy]phenyl}oxy)acetyl]amino}methyl)-1,3-thiazole-4-carboxamide]
21 | < 50 nM |  | O=C(COc1ccc(OC(F)(F)F)cc1)NCc1nc(C(=O)NCCc2cccc(Cl)c2)cs1 [Entry 2, N-[2-(3-chlorophenyl)ethyl]-2-({[({4-[(trifluoromethyl)oxy]phenyl}oxy)acetyl]amino}methyl)-1,3-thiazole-4-carboxamide]
22 | 50 to 500 nM |  | O=C(COc1ccc(OC(F)(F)F)cc1)NCc1nc(C(=O)NC(c2ccccc2)c2ccccc2)cs1 [Entry 167, N-(diphenylmethyl)-2-({[({4-[(trifluoromethyl)oxy]phenyl}oxy)acetyl]amino}methyl)-1,3-thiazole-4-carboxamide]
23 | 50 to 500 nM |  | O=C(COc1ccc(OC(F)(F)F)cc1)NCc1nc(C(=O)NCCc2ccccc2F)co1 [Entry 143, N-[2-(2-fluorophenyl)ethyl]-2-({[({4-[(trifluoromethyl)oxy]phenyl}oxy)acetyl]amino}methyl)-1,3-oxazole-4-carboxamide]
24 | 50 to 500 nM |  | NC(=O)C(NC(=O)c1csc(CNC(=O)COc2ccc(OC(F)(F)F)cc2)n1)c1ccccc1 (stereo not drawn) [Entry 54, N-(2-amino-2-oxo-1-phenylethyl)-2-({[({4-[(trifluoromethyl)oxy]phenyl}oxy)acetyl]amino}methyl)-1,3-thiazole-4-carboxamide]
25 | 50 to 500 nM |  | COc1ccc(OCCNC(=O)c2csc(CNC(=O)COc3ccc(OC(F)(F)F)cc3)n2)cc1 [Entry 81, N-(2-{[4-(methyloxy)phenyl]oxy}ethyl)-2-({[({4-[(trifluoromethyl)oxy]phenyl}oxy)acetyl]amino}methyl)-1,3-thiazole-4-carboxamide]
26 | 50 to 500 nM |  | CCC(CC)CNC(=O)c1csc(CNC(=O)COc2ccc(OC(F)(F)F)cc2)n1 [Entry 132, N-(2-ethylbutyl)-2-({[({4-[(trifluoromethyl)oxy]phenyl}oxy)acetyl]amino}methyl)-1,3-thiazole-4-carboxamide]
27 | 500 to 2000 nM |  | O=C(COc1ccc(OC(F)(F)F)cc1)NCc1nc(C(=O)NC(Cc2ccccc2)c2ccccc2)cs1 (stereo not drawn) [Entry 222, N-(1,2-diphenylethyl)-2-({[({4-[(trifluoromethyl)oxy]phenyl}oxy)acetyl]amino}methyl)-1,3-thiazole-4-carboxamide]
28 | 50 to 500 nM |  | CCC(CC)NC(=O)c1csc(CNC(=O)COc2ccc(OC(F)(F)F)cc2)n1 [Entry 171, N-(1-ethylpropyl)-2-({[({4-[(trifluoromethyl)oxy]phenyl}oxy)acetyl]amino}methyl)-1,3-thiazole-4-carboxamide]
29 | 50 to 500 nM |  | O=C(COc1ccc(OC(F)(F)F)cc1)NCc1nc(C(=O)NCCc2cccc(F)c2)co1 [Entry 148, N-[2-(3-fluorophenyl)ethyl]-2-({[({4-[(trifluoromethyl)oxy]phenyl}oxy)acetyl]amino}methyl)-1,3-oxazole-4-carboxamide]
30 | 50 to 500 nM |  | O=C(COc1ccc(OC(F)(F)F)cc1)NCc1nc(C(=O)NCc2c(Cl)cccc2Oc2ccccc2)cs1 [Entry 163, N-{[2-chloro-6-(phenyloxy)phenyl]methyl}-2-({[({4-[(trifluoromethyl)oxy]phenyl}oxy)acetyl]amino}methyl)-1,3-thiazole-4-carboxamide]
31 | 500 to 2000 nM |  | O=C(C/C=C/c1ccccc1)NCc1nc(C(=O)NCCc2ccccc2F)cs1 [Entry 276, N-[2-(2-fluorophenyl)ethyl]-2-({[(3E)-4-phenylbut-3-enoyl]amino}methyl)-1,3-thiazole-4-carboxamide]
32 | 50 to 500 nM |  | CC(C)(C)CCNC(=O)c1csc(CNC(=O)COc2ccc(OC(F)(F)F)cc2)n1 [Entry 175, N-(3,3-dimethylbutyl)-2-({[({4-[(trifluoromethyl)oxy]phenyl}oxy)acetyl]amino}methyl)-1,3-thiazole-4-carboxamide]
33 | 50 to 500 nM |  | O=C(COc1ccc(OC(F)(F)F)cc1)NCc1nc(C(=O)NCCc2ccc(Cl)cc2)cs1 [Entry 83, N-[2-(4-chlorophenyl)ethyl]-2-({[({4-[(trifluoromethyl)oxy]phenyl}oxy)acetyl]amino}methyl)-1,3-thiazole-4-carboxamide]
